pIC50: −log10 of the molar value. Where two headings read alike, the source gives them in different places.
What was measured:
[1] = biological target: T1, Trypsin (type 1× from porcine pancreas) (Sus scrofa, UniProt P00761); test: Trypsin Assay; assay type: biochemical; parameters: % Inhibition Trypsin II @ 1: concentration or dose not given beside the values
T1 construct: Trypsin (5 ug/ml; type 1× from porcine pancreas); purchased Sigma, St. Louis Mo; host or cells: porcine pancreas

[2] = biological target: T2, recombinant soluble tissue factor and recombinant human factor VIIa (TF-VIIa) (Homo sapiens, UniProt P08709); test: TF-VIIa Assay; assay type: biochemical
T2 construct: conversion of coagulation factor VII to VIIa by Xa; purchased American Diagnostica, Greenwich Conn; host or cells: factor VIIa purchased; soluble TF made in house in E. coli
T2 sequence (P08709 213-466 limits assumed): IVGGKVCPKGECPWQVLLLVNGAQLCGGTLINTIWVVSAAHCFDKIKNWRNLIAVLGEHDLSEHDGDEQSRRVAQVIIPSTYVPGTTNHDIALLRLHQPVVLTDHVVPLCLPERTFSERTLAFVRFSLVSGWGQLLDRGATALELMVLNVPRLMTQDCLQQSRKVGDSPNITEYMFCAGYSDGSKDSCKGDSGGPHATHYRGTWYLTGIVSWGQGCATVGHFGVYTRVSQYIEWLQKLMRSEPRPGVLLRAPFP
T2 sequence (P08709 61-212 limits assumed): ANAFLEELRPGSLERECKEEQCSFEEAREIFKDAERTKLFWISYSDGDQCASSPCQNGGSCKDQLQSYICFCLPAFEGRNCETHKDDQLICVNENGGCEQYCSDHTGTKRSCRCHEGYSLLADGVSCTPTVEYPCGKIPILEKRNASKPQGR
T2 sequence (P13726 33-251 partner limits assumed): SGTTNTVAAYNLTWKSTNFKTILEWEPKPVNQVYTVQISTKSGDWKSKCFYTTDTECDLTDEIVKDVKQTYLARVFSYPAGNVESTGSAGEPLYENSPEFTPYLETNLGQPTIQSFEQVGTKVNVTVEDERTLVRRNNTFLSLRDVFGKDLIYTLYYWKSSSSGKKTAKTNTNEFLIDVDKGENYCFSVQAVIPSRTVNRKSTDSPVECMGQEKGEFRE

T1 sequence (P00761 9-231): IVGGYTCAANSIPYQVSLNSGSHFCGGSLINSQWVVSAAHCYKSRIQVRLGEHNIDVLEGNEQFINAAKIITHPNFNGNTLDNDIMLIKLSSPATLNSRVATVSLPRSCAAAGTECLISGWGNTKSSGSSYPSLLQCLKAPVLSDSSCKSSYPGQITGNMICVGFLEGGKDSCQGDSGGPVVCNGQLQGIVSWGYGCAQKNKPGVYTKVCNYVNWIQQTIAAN

% Inhibition Trpysin II (100 νM) ([1]; inhibitor at 100 νM) [%] | % Inhibition TF-VIIa (100 νM) ([2]; inhibitor at 100 νM) [%] | SMILES | further results
0 | 0 | O=C(Cn1c(CCc2ccccc2)c(Cl)nc(NCc2ccccc2)c1=O)NCCc1ccncc1 [Example E-0065] | 
0 | 0 | O=C(Cn1c(CCc2ccccc2)c(Cl)nc(NCCc2cccnc2)c1=O)NCCc1ccncc1 [Example E-0069] | 
3 | 4 | O=C(Cn1c(-c2cccc(Cl)c2)c(Cl)nc(NCCc2ccc(Cl)cc2)c1=O)NCCc1ccncc1 [Example E-0082] | 
0 | 0 | O=C(Cn1c(CCc2ccccc2)c(Cl)nc(NCc2ccncc2)c1=O)NCCc1ccncc1 [Example E-0072] | 
0 | 0 | O=C(Cn1c(Cc2ccccc2)c(Cl)nc(NCCc2cccnc2)c1=O)NCCc1ccncc1 [Example E-0061] | 
0 | 0 | O=C(Cn1c(CCc2ccccc2)c(Cl)nc(NCCc2ccccc2)c1=O)NCCc1ccncc1 [Example E-0066] | 
11 | 0 | COc1ccc(-c2c(Cl)nc(NCc3ccccc3)c(=O)n2CC(=O)NCCc2ccncc2)cc1 [Example E-0097] | 
0 | 0 | O=C(Cn1c(Cc2ccccc2)c(Cl)nc(NCCN2CCOCC2)c1=O)NCCc1ccncc1 [Example E-0063] | 
0 | 0 | O=C(Cn1c(Cc2ccccc2)c(Cl)nc(NCCc2ccccc2)c1=O)NCCc1ccncc1 [Example E-0058] | 
8 | 0 | O=C(Cn1c(-c2cccc(Cl)c2)c(Cl)nc(NCc2ccccc2)c1=O)NCCc1cccnc1 [Example E-0074] | 
9 | 0 | O=C(Cn1c(-c2cccc(Cl)c2)c(Cl)nc(NCc2ccccc2)c1=O)NCCc1ccncc1 [Example E-0085] | 
0 | 0 | O=C(Cn1c(Cc2ccccc2)c(Cl)nc(NCc2ccncc2)c1=O)NCCc1ccncc1 [Example E-0064] | 
0 | 0 | O=C(Cn1c(CCc2ccccc2)c(Cl)nc(NCCc2ccc(Cl)cc2)c1=O)NCCc1ccncc1 [Example E-0068] | 
12 | 4 | COc1ccc(-c2c(Cl)nc(NCCc3ccc(Cl)cc3)c(=O)n2CC(=O)NCCc2cccnc2)cc1 [Example E-0107] | 
11 | 0 | O=C(Cn1c(-c2cccc(Cl)c2)c(Cl)nc(NCCc2cccc(Cl)c2)c1=O)NCCc1ccncc1 [Example E-0079] | 

Continued, molecule first:

SMILES | % Inhibition Trpysin II (100 νM) ([1]; inhibitor at 100 νM) [%] | % Inhibition TF-VIIa (100 νM) ([2]; inhibitor at 100 νM) [%] | further results
Cc1c(Cl)nc(NCc2ccncc2)c(=O)n1CC(=O)NCCc1ccncc1 [Example E-0008] | 0 | 0 | 
O=C(Cn1c(-c2ccc3c(c2)OCO3)c(Cl)nc(NCCN2CCOCC2)c1=O)NCCc1ccncc1 [Example E-0047] | 2 | 0 | 
O=C(Cn1c(-c2ccc3c(c2)OCO3)c(Cl)nc(NCCc2cccc(Cl)c2)c1=O)NCCc1ccncc1 [Example E-0043] | 3 | 0 | 
COc1ccc(-c2c(Cl)nc(NCCc3ccncc3)c(=O)n2CC(=O)NCCc2ccncc2)cc1 [Example E-0038] | 3 | 0 | 
O=C(Cn1c(-c2ccccc2)c(Cl)nc(NCCc2cccnc2)c1=O)NCCc1ccncc1 [Example E-0013] | 1 | 0 | 
COc1ccc(-c2c(Cl)nc(NCCc3cccnc3)c(=O)n2CC(=O)NCCc2ccncc2)cc1 [Example E-0037] | 2 | 0 | 
COc1ccc(-c2c(Cl)nc(NCCc3cccc(Cl)c3)c(=O)n2CC(=O)NCCc2ccncc2)cc1 [Example E-0035] | 2 | 4 | 
Cc1c(Cl)nc(NCCN2CCOCC2)c(=O)n1CC(=O)NCCc1ccncc1 [Example E-0007] | 0 | 0 | 
O=C(Cn1c(-c2ccc(Cl)cc2)c(Cl)nc(NCc2ccccc2)c1=O)NCCc1ccncc1 [Example E-0017] | 1 | 0 | 
Cc1c(Cl)nc(NCCc2ccncc2)c(=O)n1CC(=O)NCCc1ccncc1 [Example E-0006] | 1 | 2 | 
O=C(Cn1c(-c2ccccc2)c(Cl)nc(NCc2ccncc2)c1=O)NCCc1ccncc1 [Example E-0016] | 4 | 0 | 
O=C(Cn1c(-c2ccc(-c3ccccc3)cc2)c(Cl)nc(NCCc2ccc(Cl)cc2)c1=O)NCCc1ccncc1 [Example E-0052] |  |  | % Inhibition Trpysin II (100 νM) [1]: 0%; % Inhibition TF-VIIa (100 νM) [2]: 0%
Cc1c(Cl)nc(NCCc2ccccc2)c(=O)n1CC(=O)NCCc1ccncc1 [Example E-0002] | 0 | 0 | 
O=C(Cn1c(-c2ccccc2)c(Cl)nc(NCCc2ccc(Cl)cc2)c1=O)NCCc1ccncc1 [Example E-0012] | 0 | 0 | 
COc1ccc(-c2c(Cl)nc(NCCN3CCOCC3)c(=O)n2CC(=O)NCCc2ccncc2)cc1 [Example E-0039] | 2 | 0 | 
O=C(Cn1c(-c2ccc3c(c2)OCO3)c(Cl)nc(NCc2ccccc2)c1=O)NCCc1ccncc1 [Example E-0041] | 2 | 0 | 

SMILES | % Inhibition Trpysin II (100 νM) ([1]; inhibitor at 100 νM) [%] | % Inhibition TF-VIIa (100 νM) ([2]; inhibitor at 100 νM) [%] | further results
COc1ccc(-c2c(Cl)nc(NCc3ccccc3)c(=O)n2CC(=O)NCCc2ccncc2)cc1 [Example E-0033] | 5 | 0 | 
O=C(Cn1c(-c2ccc(Cl)cc2)c(Cl)nc(NCCc2ccccc2)c1=O)NCCc1ccncc1 [Example E-0026] | 3 | 0 | 
COc1ccc(-c2c(Cl)nc(NCCc3ccc(Cl)cc3)c(=O)n2CC(=O)NCCc2ccncc2)cc1 [Example E-0036] | 0 | 0 | 
O=C(Cn1c(-c2ccccc2)c(Cl)nc(NCc2ccccc2)c1=O)NCCc1ccncc1 [Example E-0009] | 1 | 0 | 
O=C(Cn1c(-c2ccc(Cl)cc2)c(Cl)nc(NCc2ccccc2)c1=O)NCCc1ccncc1 [Example E-0025] | 3 | 0 | 
O=C(Cn1c(-c2ccccc2)c(Cl)nc(NCCc2ccccc2)c1=O)NCCc1ccncc1 [Example E-0010] | 0 | 0 | 
O=C(Cn1c(-c2ccc(-c3ccccc3)cc2)c(Cl)nc(NCCc2ccccc2)c1=O)NCCc1ccncc1 [Example E-0112] |  |  | % Inhibition Trpysin II (100 νM) [1]: 13%; % Inhibition TF-VIIa (100 νM) [2]: 11%
O=C(Cn1c(-c2ccc(Cl)cc2)c(Cl)nc(NCCc2ccc(Cl)cc2)c1=O)NCCc1ccncc1 [Example E-0028] | 3 | 0 | 
O=C(Cn1c(-c2ccc(Cl)cc2)c(Cl)nc(NCCc2ccncc2)c1=O)NCCc1ccncc1 [Example E-0022] | 2 | 0 | 
O=C(Cn1c(-c2ccc(Cl)cc2)c(Cl)nc(NCc2ccncc2)c1=O)NCCc1ccncc1 [Example E-0024] | 1 | 0 | 
Cc1c(Cl)nc(NCCc2cccc(Cl)c2)c(=O)n1CC(=O)NCCc1ccncc1 [Example E-0003] | 0 | 0 | 
O=C(Cn1c(-c2ccccc2)c(Cl)nc(NCCN2CCOCC2)c1=O)NCCc1ccncc1 [Example E-0015] |  | 0 | 
N=C(N)c1ccc(CNC(=O)Cn2c(-c3ccc4c(c3)OCO4)c(Cl)nc(NCCc3ccc(Cl)cc3)c2=O)cc1 [1471-42] |  |  | pIC50 ([2]; read-out: IC50 TF-VIIa): 4.98
N=C(N)c1ccc(CNC(=O)Cn2c(-c3ccccc3)c(Cl)nc(NC3CC3)c2=O)cc1 [1507-31] |  |  | % Inhibition Trypsin II @ 1 [1]: 2% @ 1
N=C(N)c1ccc(CNC(=O)Cn2c(-c3ccccc3)c(Cl)nc(NCc3ccc(Cl)cc3Cl)c2=O)cc1 [1507-22] |  |  | % Inhibition Trypsin II @ 1 [1]: 8% @ 1
COc1ccc(CCNc2nc(Cl)c(-c3ccccc3)n(CC(=O)NCc3ccc(C(=N)N)cc3)c2=O)cc1 [1507-11] |  |  | % Inhibition Trypsin II @ 1 [1]: 27% @ 1

From patent US7119094B1, “Substituted polycyclic aryl and heteroarpyl pyrazinones useful for selective inhibition of the coagulation cascade” (Warner-Lambert Company, priority 2000, dated 2006)
